Source: patent publication US11882828B2, “Mosquito vector control compositions, methods and products utilizing same” (priority 2015, dated 2024)

Key:
Aedes aegypti [1] = test: whole plant or invertebrate; conditions: Aedes aegypti, 48 h
Summary of the method: (§1)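 Non-blood-fed adult females (2–5 days old), ten per well, were placed on dried ethanol deposits of the test compound at a defined concentration and fed 10% sucrose. Mortality was scored at 48 hours as the mean of two replicates.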

Anopheles stephensi [2] = test: whole plant or invertebrate; conditions: Anopheles stephensi, 48 h
Summary of the method: as §1

[3] = system: Anopheles stephensi (Indian malaria mosquito); test: whole plant or invertebrate; conditions: Anopheles stephensi
Method: […] Once the deposits were dry, five non-blood fed adult female Anopheles stephensi (between two to five days old) were added to each well, and sustained with a 10% sucrose solution in a cotton wool plug. Assessment of the knockdown after 1 hour, and mortality after 48 hours was carried out.
(§2) In case of multiple tests, the mean value is reported.

An. stephensi = test: Example B4: cross resistance study, 6-well plate; type: in vivo
Method: (§3) In each study, a set of plates were infested with a known insecticide susceptible strain of mosquitoes from the same genera as the resistant strains.
(§4) Assessment of the knockdown after 60 minutes and mortality after 24 hours was carried out. Each treatment was replicated a minimum of four times, with the mean knockdown or mortality recorded.
(§5) A comparison of the knockdown and mortality of the resistant strain of mosquitoes was made to that of the susceptible to identify evidence of cross resistance.

An. Gambiae Kisumu sus = test: Example B4: cross resistance study, 6-well plate; type: in vivo
Method: as §3, §4, §5

Ae. Aegypti New Orleans = test: Example B4: cross resistance study, 6-well plate; type: in vivo
Method: as §3, §4, §5

An. Arabiensis Moz sus = test: Example B4: cross resistance study, 6-well plate; type: in vivo
Method: as §3, §4, §5

Ae. aegypti Caymon = test: Example B4: cross resistance study, 6-well plate; type: in vivo
Method: as §3, §4, §5

An. Gambiae Tiassalé = test: Example B4: cross resistance study, 6-well plate; type: in vivo
Method: as §3, §4, §5

An. Gambiae Kisumu rdl = test: Example B4: cross resistance study, 6-well plate; type: in vivo
Method: as §3, §4, §5

Aedes aegypti [4] = test: Example B7: evaluation of insecticide impregnated polymer surfaces; type: in vivo; conditions: AI content 2 wt %, polymer 4 to 6 weeks old; for mortality: 24 hours after exposure; for knock-down: after one hour
Summary of the method: (§6)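 Methoxyacrylates were melt-blended into LDPE, HDPE or PP and moulded into sheets about 0.1 mm thick. Ten 3–5-day-old non-blood-fed adult females were held 24 h on 10% sucrose, then confined in a Petri dish under the treated sheet for 1 h. Knockdown was scored at 1 h and mortality 24 h after exposure.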

Anopheles stephensi [5] = test: as above; type: in vivo; conditions: AI content 2 wt %; for mortality: 24 hours after exposure; for knock-down: after one hour
Summary of the method: as §6

[6] = system: Aedes aegypti (Yellow fever mosquito); test: whole plant or invertebrate; conditions: Aedes aegypti
Method: […] Once the deposits were dry, five non-blood fed adult female Aedes aegypti (between two to five days old) were added to each well, and sustained with a 10% sucrose solution in a cotton wool plug. Assessment of the knockdown after 1 hour, and mortality after 48 hours was carried out.
as §2

Question: What does the source list for CO/C=C(/C(=O)OC)c1ccccc1Oc1nc(C(C)(C)C)ns1 [Compound 7, Methyl (E)-2-[2-[(3-tert-butyl-1,2,4-thiadiazol-5-yl)oxy]phenyl]-3-methoxy-prop-2-enoate]?
Answer: mortality at 5 ppm (Aedes aegypti [1]): 78%; mortality at 5 ppm (Anopheles stephensi [2]): 95%; pest or weed control at 20 ppm ([3]; 1 h, read-out: Knockdown): 67%; mortality at 20 ppm ([3]; 48 h): 100%; Knockdown (An. stephensi; 2.50 ppm, after 60 minutes, An. stephensi): 40%; mortality at 2.5 ppm (An. stephensi; Anopheles stephensi, 24 h): 100%; Knockdown (An. Gambiae Kisumu sus; 2.50 ppm, after 60 minutes, Kisumu sus): 100%; mortality at 2.5 ppm (An. Gambiae Kisumu sus; Anopheles gambiae, 24 h): 100%; Knockdown (Ae. Aegypti New Orleans; 2.50 ppm, after 60 minutes, New Orleans): 38%; mortality at 2.5 ppm (Ae. Aegypti New Orleans; Aedes aegypti, 24 h): 100%; Knockdown (An. Arabiensis Moz sus; 2.50 ppm, after 60 minutes, Moz sus): 95%; mortality at 2.5 ppm (An. Arabiensis Moz sus; Anopheles arabiensis, 24 h): 100%; Knockdown (Ae. aegypti Caymon; 2.50 ppm, after 60 minutes, Caymon): 52%; mortality at 2.5 ppm (Ae. aegypti Caymon; Aedes aegypti, 24 h): 28%; Knockdown (An. Gambiae Tiassalé; 2.50 ppm, after 60 minutes, Tiassalé): 90%; mortality at 2.5 ppm (An. Gambiae Tiassalé; Anopheles gambiae, 24 h): 85%; Knockdown (An. Gambiae Kisumu rdl; 2.50 ppm, after 60 minutes, Kisumu rdl): 90%; mortality at 2.5 ppm (An. Gambiae Kisumu rdl; Anopheles gambiae, 24 h): 100%; mortality (Aedes aegypti [4]; HDPE): 47%; knock-down (Aedes aegypti [4]; HDPE): 83%; mortality (Aedes aegypti [4]; LDPE): 97%; knock-down (Aedes aegypti [4]; LDPE): 100%; mortality (Aedes aegypti [4]; PP): 23%; knock-down (Aedes aegypti [4]; PP): 67%; mortality (Anopheles stephensi [5]; HDPE, polymer 4 to 6 weeks old): 87%; knock-down (Anopheles stephensi [5]; HDPE, polymer 4 to 6 weeks old): 93%; mortality (Anopheles stephensi [5]; HDPE, polymer 6 to 8 weeks old): 87%; knock-down (Anopheles stephensi [5]; HDPE, polymer 6 to 8 weeks old): 100%; mortality (Anopheles stephensi [5]; LDPE, polymer 4 to 6 weeks old): 97%; knock-down (Anopheles stephensi [5]; LDPE, polymer 4 to 6 weeks old): 100%; mortality (Anopheles stephensi [5]; LDPE, polymer 6 to 8 weeks old): 100%; knock-down (Anopheles stephensi [5]; LDPE, polymer 6 to 8 weeks old): 87%; mortality (Anopheles stephensi [5]; PP, polymer 4 to 6 weeks old): 87%; knock-down (Anopheles stephensi [5]; PP, polymer 4 to 6 weeks old): 93%; mortality (Anopheles stephensi [5]; PP, polymer 6 to 8 weeks old): 77%; knock-down (Anopheles stephensi [5]; PP, polymer 6 to 8 weeks old): 100%; pest or weed control at 20 ppm ([6]; 1 h, read-out: Knockdown): 100%; mortality at 20 ppm ([6]; 48 h): 100%
